Measurements from patent US20030139438A1, “Diagnosis of the parkinsonian condition” (priority 2001, published 2003).

Experiments:
opioid receptor = test: Naltrexone challenge in reserpine-treated rats, locomotor activity (Benwick monitors); format: in vivo, Sprague-Dawley rats
Procedure: Reserpine was administered to rats to deplete dopamine levels. […] In this situation the animals represent a model of pre-symptomatic patients, i.e. they have a dopamine depletion but no overt symptoms.
Male Sprague-Dawley rats were split into two groups A and B. Rats in both groups received a subcutaneous administration of reserpine (3 mg/kg). The rats were allowed to recover for 48 hours post reserpine treatment at which point they are considered to represent a model of pre-symptomatic Parkinson's disease.
After the 48 hours Group A were treated with vehicle (water) and group B were treated with naltrexone (10 mg/kg) and placed in locomotor monitoring apparatus (see below).
The locomotion of the rats in Groups A and B following either vehicle or naltrexone treatment was measured over the 5 minute period immediately after drug administration using Benwick locomotor monitors. These locomotion monitors consist of a visually-shielded open-field arena, the perimeter of which is surrounded by a series of infra-red beams arranged at 5 cm intervals. PC-based software (Amlogger) assesses the number of beams broken. The number of beams broken as part of a locomotor movement (activity counts) was measured.

dopamine levels = test: Reserpine-induced dopamine depletion in rats; format: in vivo; settings: 3 mg/kg s.c., after 48 hours
Procedure: (§1) Reserpine (3 mg/kg, s.c, in 3% glacial acetic acid) was administered to rats to deplete dopamine levels.
(§2) In this situation the animals represent a model of pre-symptomatic subjects, i.e. they have a dopamine depletion but no symptoms.

cynomolgus monkeys [1] = test: Parkinsonian monkey rating scale after chronic MPTP administration; format: in vivo, Macaca fascicularis; settings: scale 0-25
Procedure: (§3) Experiments were conducted on twenty five female cynomolgus monkeys (Macaca fascicularis, Shared Animal Health, Beijing, PR of China; mean age=3.1. ±0.3 years; mean weight=2.8 ±0.2 kg). Animals were housed in individual primate cages under controlled conditions of humidity (50±5%0, temperature (24 ±1° C.), and light (12 h light/dark cycles), food and water were available ad libitum and their care supervised by veterinarians skilled in the healthcare and maintenance of nonhuman primates. Experiments were carried out in accordance with European Economic Community (86/6091/EEC) guidelines for care of laboratory animals. The effect of nontreatment on both motor behaviour and PPE-A expression had been previously compared with that of the administration of saline in order to rule out any possible interference. Accordingly MPTP-treated animals were compared with “nontreated” controls in this study. This procedure has been chosen to minimise the number of animals used. In addition, brain tissues acquired for the present experiments are being used for further experiments.
(§4) Five monkeys were killed at the beginning of the study and were considered as day 0 (D0) controls. The remaining 20 were treated with daily (9:00 am) injections of MPTP hydrochloride (0.2 mg/kg, i.v.; Sigma, St Louis, Mo.) in saline according to a previously described protocol (Bezard et al., 1997 Neuroscience 81 p 399-404; Bezard et al., 1997 Brain Res. 766 p 107-112; and Bezard et al., 1999 Eur. J. Neurosci. 11 p 2167-2170). This protocol derives a reproducible MPTP cumulative dosing regime that leads to the first appearance of parkinsonian clinical signs after 15±1 injections (3.0±0.02 mg/kg). Five presymptomatic monkeys were killed on day 6 (i.e., after 6 injections; D6 Group), five presymptomatic monkeys at day 12 (i.e. after 12 injections; D12 group), five at day 15 after appearance of overt symptoms (i.e. after 15 injections; D15 group), and the remaining five fully parkinsonian monkeys at day 25 (i.e. after 15 injections; D25). All animals were killed by sodium pentobarbital overdose (150 mg/kg, i.v.) and the brains were removed quickly after death. Each brain was bisected along the midline and the two hemispheres were immediately frozen by immersion in isopentane (−45° C.) and then stored at −80° C. […]
(§5) Animal behavior was assessed daily (2 p.m) on a parkinsonian monkey rating scale (Bezard et al., 1997 Neuroscience 81 p399-404; and Bezard et al., 1997 Neuroreport 8 p435-438) using videotape recordings of monkeys in their cages in addition to clinical neurological evaluation. During each session two examiners evaluated the animals' levels of motor performance, coaxing them to perform various tasks by offering appetizing fruit. […]

cynomolgus monkeys [2] = test: Bradykinesia test (time to pick up three pieces of fruit) after chronic MPTP; format: in vivo, Macaca fascicularis; settings: maximum 60 s
Procedure: as §3, §4, §5

striatal DA content = test: Neurochemical analysis of striatal DA by HPLC with electrochemical detection; format: in vivo, Macaca fascicularis
Procedure: (§6) Five monkeys were killed at the beginning of the study and were considered as day 0 (D0) controls. The remaining 20 were treated with daily (9:00 am) injections of MPTP hydrochloride (0.2 mg/kg, i.v.; Sigma, St Louis, Mo.) in saline according to a previously described protocol (Bezard et al., 1997 Neuroscience 81 p 399-404; Bezard et al., 1997 Brain Res. 766 p 107-112; and Bezard et al., 1999 Eur. J. Neurosci. 11 p 2167-2170). This protocol derives a reproducible MPTP cumulative dosing regime that leads to the first appearance of parkinsonian clinical signs after 15±1 injections (3.0±0.02 mg/kg). Five presymptomatic monkeys were killed on day 6 (i.e., after 6 injections; D6 Group), five presymptomatic monkeys at day 12 (i.e. after 12 injections; D12 group), five at day 15 after appearance of overt symptoms (i.e. after 15 injections; D15 group), and the remaining five fully parkinsonian monkeys at day 25 (i.e. after 15 injections; D25). All animals were killed by sodium pentobarbital overdose (150 mg/kg, i.v.) and the brains were removed quickly after death. Each brain was bisected along the midline and the two hemispheres were immediately frozen by immersion in isopentane (−45° C.) and then stored at −80° C. Tissue was sectioned at 20 μm in a cryostat at −17° C., thaw-mounted onto gelatin-subbed slides, dried on a slide warmer and stored at −80° C.
The extent of striatal DA denervation was assessed by measuring levels of DA, 3,4-dihydroxyphenylacetic acid (DOPAC) and homovanillic acid (HVA) in both the caudate nucleus and the putamen using high-pressure liquid chromatography with electrochemical detection as previously described (Bezard et al., 1997 Neuroscience 81 p399-404) with minor modifications. […] Pellets were retained for quantification of protein content by the Bradford assay (Bezard et al., 1997 Neuroscience 81 p 399-404). […] Concentrations of DA and metabolites were calculated using a computing integrator (Gold Nouveau V 1.6, Beckman). Mean and SEM values were calculated for both putamen and caudate nucleus for each group.

PPE-A mRNA = test: Preproenkephalin-A in situ hybridization in striatum; format: in vivo, Macaca fascicularis
Procedure: as §6
In situ hybridization histochemistry was performed as previously described by Henry et al. (1999 Exp. Neurol. 155 p204-220) using a ^35S-radiolabeled oligonucleotide probe (Gibco BRL) corresponding to amino acids 130-145 of the human sequence of PPE-A. One microliter of the oligonucleotide was tailed by the isotope of 37° C. in a mixture containing 10 μl sterile water, 12.5 μl reaction buffer (sodium cocodylate 120 mM and dithiothreitol 100 mM), and 2 μl terminal deoxynucleotide transferase (all reagents DuPont/NEN) with 7 μl of [^35S] ATP (82.5 μCi, NEN). […] One microliter of this solution was counted by a liquid scintillation counter (Tricarb, 1500 Packard) to asses the efficiency of labeling. […]
Densitomeric analysis of autoradiographs was performed using an image analysis system (Image Pro Plus, v3.0.01, Media Cybernetics L.P., Atlanta, Ga.) as previously described (Henry et al., supra). The optical density of the autoradiogram was assessed for the striatum at three rostrocaudal levels in accordance with the functional organisation of the striatum: a rostral level, including the caudate, putamen, and nucleus accumbens; a midlevel, including the caudate, putamen, and GPe; and a caudal level including the body of the caudate, the putamen, and both the GPe and GPi. […] Four sections per animal, per striatal level were analyzed by an examiner blind with regard to experimental condition. […]

actions of metenkephalin = test: Naloxone challenge in reserpine-treated rat model of pre-symptomatic subjects; format: in vivo, rats
Procedure: as §1, §2
The parkinsonan symptoms were reversible and were not observed one hour after the naloxone injection where the animals returned to the presymptomatic state.

Compound: O=C1CC[C@@]2(O)[C@H]3Cc4ccc(O)c5c4[C@@]2(CCN3CC2CC2)[C@H]1O5 [naltrexone]
- parkinsonian symptoms (opioid receptor; 10 mg/kg i.p., rats 48 hours after reserpine): parkinsonian symptoms appeared
- activity counts versus vehicle treated group (opioid receptor; 10 mg/kg, 5 minute period after administration, rats 48 hours after reserpine 3 mg/kg s.c., P<0.01): significantly less

Compound: COC(=O)[C@H]1[C@H]2C[C@@H]3c4[nH]c5cc(OC)ccc5c4CCN3C[C@H]2C[C@@H](OC(=O)c2cc(OC)c(OC)c(OC)c2)[C@@H]1OC [Reserpine]
- dopamine level (dopamine levels): not less than 20 % of normal levels

Compound: CN1CC=C(c2ccccc2)CC1 [MPTP, 1-methyl-4-phenyl-1,2,3,6-tetrahydropyridine]
- parkinsonian score (cynomolgus monkeys [1]; D6 group, 6 daily injections 0.2 mg/kg i.v.): 0
- parkinsonian score (cynomolgus monkeys [1]; D12 group, 12 daily injections 0.2 mg/kg i.v.): 0
- parkinsonian score, median (range) (cynomolgus monkeys [1]; D15 group, 15 injections 0.2 mg/kg i.v.): 11 (range 10-14)
- parkinsonian score, median (range) (cynomolgus monkeys [1]; D25 group, killed at day 25 after 15 injections): 17 (range 15-19)
- mean duration of the bradykinesia test (cynomolgus monkeys [2]; D6 group, D0 controls 3.0±0.4 s): 2.4 ± 0.3 s
- mean duration of the bradykinesia test (cynomolgus monkeys [2]; D12 group, D0 controls 3.0±0.4 s): 2.6 ± 0.5 s
- mean duration of the bradykinesia test (cynomolgus monkeys [2]; D15 group): 19.9 ± 9.1 s
- mean duration of the bradykinesia test (cynomolgus monkeys [2]; D25 group, could not perform the test): 60 s
- reduction of DA level in the putamen compared to D0 (striatal DA content; D6 group): 42.7%
- depletion of DA in the putamen compared to D0 (striatal DA content; D12 group, asymptomatic): 56.3%
- decrease of DA level in the putamen compared to D0 (striatal DA content; D25 group): 97.9%
- PPE-A mRNA levels in striatum compared to D0 (PPE-A mRNA; D6 group): no significant difference
- PPE-A mRNA levels in striatum compared to D0 (PPE-A mRNA; D12 group, asymptomatic): sharp increase
- PPE-A mRNA levels in striatum compared to D0 (PPE-A mRNA; D15 group, mild parkinsonian symptoms): same distribution of increased levels
- PPE-A mRNA levels in striatum compared to D0 (PPE-A mRNA; D25 group, fully parkinsonian): pronounced increases

Compound: C=CCN1CC[C@]23c4c5ccc(O)c4O[C@H]2C(=O)CC[C@@]3(O)[C@H]1C5 [naloxone]
- parkinsonian symptoms (actions of metenkephalin; 10 mg/kg i.p., rats 48 hours after reserpine 3 mg/kg s.c.): parkinsonian symptoms became manifest
- parkinsonian symptoms one hour after the injection (actions of metenkephalin; 10 mg/kg i.p., reserpine-treated rats): not observed
- parkinsonian symptoms in control animals not treated with reserpine (actions of metenkephalin; naloxone without reserpine): No parkinsonian symtoms were seen
